The values that follow come from patent publication US20130065964A1, “PERITONEAL DIALYSIS SOLUTION” (UNIVERSIDAD DE CASTILLA LA MANCHA, priority 2010, published 2013).

For the experiment, the system named is Collagen III. The experiment can be described thus: Real-time RT-PCR in cultured PMCs exposed to PDF. Format: cell-based. Particulars: rat PMCs, 1.5% PDF diluted 1:1 in culture medium, 24 hours, aliskiren 10-100 μM, FIG. 10. The procedure: After incubating the rat PMCs in 1.5% PDF diluted 1:1 in culture medium for 24 hours, in the presence or absence of aliskiren (10-100 μM), total RNA was isolated and real-time RT-PCR was carried out as described in Material and Methods. The data is expressed as mean±SEM, n=3. * p<0.05 compared to untreated cells (control). # p<0.05, compared to cells treated with 1.5% PDF in the presence of carrier (0).
Rat peritoneal mesothelial cells were isolated by enzymatic digestion in accordance with protocols described in Hjelle J T, Golinska B T, Waters D C, et al. Perit Dial Int 1989; 9: 341-7. Briefly, female rats weighing 200-400 g of the Spragle-Dawley strain were sacrificed pursuant to Royal Decree 1201/2005, of 10 Oct., on protection of animals used for experimental and other scientific purposes. […]
The RNA expression was evaluated by real-time RT-PCR in PMCs. […] RNA quality and concentration was evaluated by spectrophotometry (Infinite 200, Tecan, Salzburg, Austria) using 1 μl of the RNA sample. […] The dissociation curves were analysed to confirm the amplification of a single PCR product. […] In each experiment, the mean cycle threshold (CT) was calculated from triplicates for each of the genes studied, enabling comparison of the gene expression after different treatments (Methods 25, 402-408 (2001). In order to normalize the data, the gene expression of β-actin was used as endogenous control.
(In qPCR the cycle at which signal appears reflects the starting amount.)

For the molecule `COCCCOc1cc(C[C@@H](C[C@H](N)[C@@H](O)C[C@H](C(=O)NCC(C)(C)C(N)=O)C(C)C)C(C)C)ccc1OC` [aliskiren], the “RNAm levels for collagen III” value was “lowered”.
